In publication PMC11859423, “Fluorescent Probes to Image the KCa3.1 Channel in Tumor Cells” (Pharmaceutics, 2025):
Values joined by “and” are separate entries in the source; they are usually repeats but may differ in a detail not shown here. Equal values may be shown once. “Also recorded” adds a separate entry of the source. Read-outs that look alike come from different tables or passages of the source. One block for each compound: values may come before it.

Legend:
[1] = cited from earlier work; for Absorption λmax / Emission λmax / Stokes Shift / ΦF absolute quantum yield / τ photoluminescence lifetime: 298 K
[2] = UV-Vis absorption and time-resolved photoluminescence spectroscopy; type: physicochemical
Procedure: All solvents used were of spectrometric grade (Uvasol®). UV-visible absorption spectra were measured using a Shimadzu UV–VIS spectrophotometer (UV-3600i). Photoluminescence quantum yields were measured with a Hamamatsu Photonics absolute PL quantum yield measurement system (C9920-02) equipped with a L9799-01 CW Xe light source (150 W), a monochromator, a C7473 photonic multi-channel analyzer, an integrating sphere and employing U6039-05 software, version 3.6.0. (Hamamatsu Photonics, Ltd., Shizuoka, Japan). Steady-state excitation and emission spectra were recorded on a FluoTime 300 spectrometer from PicoQuant equipped with a 300 W ozone-free Xe lamp (200–1100 nm), a 10 W Xe-flash lamp (200–1100 nm, pulse width ca. 1 µs) with repetition rates of 1–300 Hz, a double-grating excitation monochromator (Czerny–Turner type, grating with 1200 lines/mm, blaze wavelength: 300 nm), diode lasers (pulse width < 20 ps) operated by a computer-controlled laser driver PDL-828 “Sepia II” (repetition rate up to 80 MHz, burst mode for slow and weak decays), two emission monochromators (Czerny–Turner, selectable between double-grating blazed at 500 nm with 2.7 nm/mm dispersion and 1200 lines/mm, or single-grating blazed at 1250 nm with 5.4 nm/mm dispersion and 600 lines/mm) with adjustable slit width between 25 μm and 7 mm. Glam–Thompson polarizers for excitation (after the Xe-lamps) and emission (after the sample) were used. Different sample holders (Peltier-cooled mounting unit ranging from −15 to 110 °C or an adjustable front-face sample holder), along with two detectors (namely a PMA Hybrid-07 from PicoQuant with transit time spread FWHM < 50 ps, 200–850 nm, or a H10330C-45-C3 NIR detector with transit time spread FWHM 0.4 ns, 950–1400 nm from Hamamatsu) were used. Steady-state spectra and photoluminescence lifetimes were recorded in TCSPC mode by a PicoHarp 300 (minimum base resolution 4 ps) or in MCS mode by a TimeHarp 260 (where up to several ms can be traced). Emission and excitation spectra were corrected for source intensity (lamp and grating) by standard correction curves. For samples with lifetimes in the ns order, an instrument response function calibration (IRF) was performed using a diluted Ludox® dispersion. Lifetime analysis was performed using the commercial EasyTau 2 software, version 2.3. (PicoQuant, Berlin, Germany). The quality of the fit was assessed by minimizing the reduced chi squared function (χ^2) and visual inspection of the weighted residuals and their autocorrelation.
Fluorescence microscopy was used for the analysis of KCa3.1 channel labeling of cells with fluorescent dyes. Therefore, the photophysical properties of fluorescently labeled senicapoc derivatives 15a, 21a, and 22 were determined. Since the fluorophores are separated from the rest of the molecule by a linker, the photophysical properties could be recorded using azide precursors 6a, 6b, and 7a as well.

[3] = logP by HPLC retention time correlation; type: physicochemical; conditions: standardized reversed phase HPLC system
Procedure: The logP values were recorded using HPLC analysis. Thus, the retention time of the test compound in a standardized reversed phase HPLC system is correlated with the retention times of compounds with known logP values.
In addition to the logD7.4 values, the logP values of the fluorescent probes were recorded by HPLC, i.e., after calibration of the method, the retention times were correlated with the logP values or the compounds [33]. […] Fluorescein-labeled ligands 21a and 21b are considerably more polar than the corresponding bodipy-labeled senicapoc derivatives.

[4] = molecular target: T1, KCa3.1 channel in A549-3R cells (Homo sapiens, UniProt O15554); assay: Staining of fixed A549-3R tumor cells (Protocol 1), fluorescence microscopy; type: cell-based; conditions: 10 µM in PBS, 10 min, 4 °C, Protocol 1
T1 construct: the non-small cell lung cancer cell line A549-3R with a high expression of the KCa3.1 channel was employed; endogenous in cells; host or cells: A549-3R cells
Procedure: For the fixation of the cells, the DMEM medium was removed from the glass bottom dish after incubation for 24 h, and the cells were washed with 1 mL of PBS. Subsequently, 1 mL of 4% paraformaldehyde in PBS solution was added to the glass bottom dish and the mixture was incubated for 30 min at room temperature. Thereafter, the cells were washed five times with 1 mL of PBS and used for the cell staining experiments.
After fixation of the cells (Section 2.10.2), 300 µL of the 10 µM staining solution was added to the glass bottom dish. The cells were incubated for 10 min at 4 °C in a dark chamber. After incubation, the cells were washed five times with 1 mL of PBS and used subsequently for fluorescence microscopy.
An Axiovert 200 inverted microscope (Carl Zeiss AG, Jena, Germany) with a ×100 oil immersion objective and a digital camera (SPOT RT SE from Diagnostic Instruments Inc., Livingston, UK) were used. The camera was controlled by MetaVue software (version 6.3r6, Visitron, Germany). Two different filter sets were employed, the FITC filter set (Carl Zeiss Filter Set 10 bandwidth excitation filter 450–490, color splitter 510, bandpass filter 515–565) and the TRITC filter set (Carl Zeiss Filter Set 15, bandpass excitation filter 546/12, dichroic mirror 580, emission filter Long Pass 590).
Using the free imaging software ImageJ (1.53f51, NIH, USA), squares with an edge length of 50 × 50 pixels, corresponding to an area of 9 µm^2, were randomly placed in a cell and signals with Full Width at Half Maximum (FWHM) of ≤5 pixels (~300 nm) were counted as a KCa3.1 channel. For the evaluation, 7 squares were analyzed.
For the staining experiments, the non-small cell lung cancer cell line A549-3R with a high expression of the KCa3.1 channel was employed. An optimized staining protocol (Protocol 1) described previously was followed to analyze the imaging properties of the fluorescent probes. In brief, the 10 µM solution of the senicapoc–dye conjugate in PBS was added to adherent A549-3R cells in a glass bottom dish and the set-up was incubated for 10 min at 4 °C in a dark chamber. After careful washing, the cells were analyzed with a fluorescence microscope.
The images were analyzed with respect to size and density of the fluorescent dots. For this purpose, a square with a size of 50 × 50 pixels was randomly placed on the cell images using ImageJ. The intensities of the signals within the square were analyzed to calculate the Full Width at Half Maximum (FWHM) for each selected dot, which represents a measure for the signal size. For the accurate representation of a single KCa3.1 channel, the FWHM should be in the range of five pixels. Signals with a FWHM of ≤5 pixels within the square were regarded as labeled KCa3.1 channels and the number of identified channels was used to determine the density of the ion channels on the cells (Figure S8, Supplementary Materials).

[5] = logD7.4 by micro shake flask method (n-octanol / MOPS buffer pH 7.4, LC-MS); type: physicochemical; conditions: read-out: logD7.4 ± SD (Micro Shake Flask)
Procedure: The logD7.4 values were recorded using the micro shake flask method. In this method, the test compound is distributed between n-octanol and MOPS buffer pH 7.4, and the amount of the compound in the buffer layer is determined by mass spectrometry.
The new fluorescent dyes were designed to increase the polarity and reduce the non-specific labeling of lipophilic membranes of cells. Moreover, a higher polarity should lead to increased water solubility and thus improved handling of the dyes. The logD7.4 value was recorded as a measure of the polarity/lipophilicity using our recently published micro-shake flask method. According to this method, the amount of compound in the aqueous 3-morpholinopropanesulfonic acid (MOPS) buffer pH 7.4 was determined by LC-MS [31, 32].

[6] = general property stated without reference
[7] = measured in CH3CN, c = 10^−5 M, CH2CH2O linker instead of CH2CH2OCH2CH2O linker
[8] = solution (CH2Cl2 or CH3CN), c = 10^−5 M, 298 K

SMILES: O=C1OC2(c3ccc(O)cc3Oc3cc(O)ccc32)c2ccccc21 [fluorescein, reference compound]
absorption maximum λmax [1, 6]: 485 nm
emission maximum λmax [1, 6]: 514 nm

SMILES: CCC1=C(C)C2=C(c3ccc(OCCOCCN=[N+]=[N-])cc3)c3c(C)c(CC)c(C)n3[B-](F)(F)[N+]2=C1C [6b, 8-[4-(2-(2-Azidoethoxy)ethoxy)phenyl]-2,6-diethyl-4,4-difluoro-1,3,5,7-tetramethyl-4-bora-3a,4a-diaza-s-indacene]
increase of absorption and emission maxima by two ethyl moieties at the bodipy core ([2]; 6b compared with 6a): 23 nm
Absorption λmax [1, 7]: 524 nm
Emission λmax [1, 7]: 537 nm
Stokes Shift [1, 7]: 13 nm
ΦF absolute quantum yield [1, 7]: 0.81 ± 0.02
τ photoluminescence lifetime [1, 7]: 6.32 ± 0.05 ns

SMILES: CC1=CC(C)=[N+]2C1=C(c1ccc(OCCOCCN=[N+]=[N-])cc1)c1c(C)cc(C)n1[B-]2(F)F [6a]
Absorption λmax ([1]; CH2Cl2, c = 10^−5 M): 501 nm
Emission λmax ([1]; CH2Cl2, c = 10^−5 M): 515 nm
Stokes Shift ([1]; CH2Cl2, c = 10^−5 M): 14 nm
ΦF absolute quantum yield ([1]; CH2Cl2, c = 10^−5 M): 0.48 ± 0.02
τ photoluminescence lifetime ([1]; CH2Cl2, c = 10^−5 M): 3.80 ± 0.02 ns

SMILES: CCC1=C(C)C2=C(CCCCn3cc(COc4ccc(C(C(N)=O)(c5ccccc5)c5ccc(F)cc5)cc4)nn3)c3c(C)c(CC)c(C)n3[B-](F)(OC)[N+]2=C1C (stereo not drawn) [16b, 2-[4-({1-[4-(2,6-Diethyl-4-fluoro-4-methoxy-1,3,5,7-tetramethyl-4-bora-3a,4a-diaza-s-indacen-8-yl)butyl]-1,2,3-triazol-4-yl}methoxy)phenyl]-2-(4-fluorophenyl)-2-phenylacetamide]
chromatographic logP [3]: 5.4
staining pattern of fixed A549-3R tumor cells [4]: unspecific staining; also recorded: unspecific labeling

SMILES: CCC1=C(C)C2=C(c3ccc(OCCOCCN=[N+]=[N-])cc3)c3c(C)c(CC)c(C)n3[B-](F)(OC)[N+]2=C1C (stereo not drawn) [7b, 8-{4-[2-(2-Azidoethoxy)ethoxy]phenyl}-2,6-diethyl-4-fluoro-4-methoxy-1,3,5,7-tetramethyl-4-bora-3a,4a-diaza-s-indacene]
staining pattern of fixed A549-3R tumor cells [4]: a punctate staining pattern characteristic for the interaction with the ion channel was not observed; also recorded: high fluorescence intensity inside and around the nucleus

SMILES: CO[B-]1(F)n2c(C)cc(C)c2C(c2ccc(OCCOCCN=[N+]=[N-])cc2)=C2C(C)=CC(C)=[N+]21 (stereo not drawn) [7a]
Absorption λmax ([1]; CH2Cl2, c = 10^−5 M): 501 nm
Emission λmax ([1]; CH2Cl2, c = 10^−5 M): 516 nm
Stokes Shift ([1]; CH2Cl2, c = 10^−5 M): 15 nm
ΦF absolute quantum yield ([1]; CH2Cl2, c = 10^−5 M): 0.43 ± 0.02
τ photoluminescence lifetime ([1]; CH2Cl2, c = 10^−5 M): 3.50 ± 0.01 ns

The next lines start with results.

chromatographic logP [3]: 6.7
SMILES: CCC1=C(C)C2=C(c3ccc(OCCOCCn4cc(COc5ccc(C(C(N)=O)(c6ccccc6)c6ccc(F)cc6)cc5)nn4)cc3)c3c(C)c(CC)c(C)n3[B-](F)(F)[N+]2=C1C (stereo not drawn) [9b, 2-{4-[(1-{2-[4-(2,6-Diethyl-4,4-difluoro-1,3,5,7-tetramethyl-4-bora-3a,4a-diaza-s-indacen-8-yl)phenoxy]ethoxyethyl}-1,2,3-triazol-4-yl)methoxy]phenyl}-2-(4-flluorophenyl)-2-phenylacetamide]
staining pattern of fixed A549-3R tumor cells [4]: unspecific staining; also recorded: unspecific labeling

chromatographic logP [3]: 4.8
quantum yield ([2]; see Table 2): 96%
Absorption λmax [2, 8]: 501 nm
Emission λmax [2, 8]: 513 nm
Stokes Shift [2, 8]: 12 nm
ΦF absolute quantum yield [2, 8]: 0.96 ± 0.04
τ photoluminescence lifetime [2, 8]: 5.77 ns and 5.77 ± 0.02 ns
SMILES: CC1=CC(C)=[N+]2C1=C(CCCCn1cc(COc3ccc(C(C(N)=O)(c4ccccc4)c4ccc(F)cc4)cc3)nn1)c1c(C)cc(C)n1[B-]2(F)F (stereo not drawn) [15a, 2-[4-({1-[4-(4,4-Difluoro-1,3,5,7-tetramethyl-4-bora-3a,4a-diaza-s-indacen-8-yl)butyl]-1,2,3-triazol-4-yl}methoxy)phenyl]-2-(4-fluorophenyl)-2-phenylacetamide]
staining pattern of fixed A549-3R tumor cells [4]: unspecific staining; also recorded: unspecific labeling

logD [5]: > 5
chromatographic logP [3]: 4
SMILES: CO[B-]1(F)n2c(C)cc(C)c2C(CCCCn2cc(COc3ccc(C(C(N)=O)(c4ccccc4)c4ccc(F)cc4)cc3)nn2)=C2C(C)=CC(C)=[N+]21 (stereo not drawn) [16a, 2-[4-({1-[4-(4-Fluoro-4-methoxy-1,3,5,7-tetramethyl-4-bora-3a,4a-diaza-s-indacen-8-yl)butyl]-1,2,3-triazol-4-yl}methoxy)phenyl]-2-(4-fluorophenyl)-2-phenylacetamide]
staining pattern of fixed A549-3R tumor cells [4]: unspecific staining; also recorded: unspecific labeling

chromatographic logP ([3]; HPLC at pH 6.0): 1.3
SMILES: NC(=O)C(c1ccccc1)(c1ccc(F)cc1)c1ccc(OCCOCCOCCOCCNC(=S)Nc2ccc3c(c2)C(=O)OC32c3ccc(O)cc3Oc3cc(O)ccc32)cc1 (stereo not drawn) [21b, 2-(4-{12-[3-(3′,6′-Dihydroxy-3-oxo-3H-spiro[[2]benzofuran-1,9′-xanthen]-5-yl)thioureido]-1,4,7,10-tteraoxadodecan-1-yl}phenyl)-2-(4-fluorophenyl)-2-phenylacetamide]
staining pattern of fixed A549-3R tumor cells [4]: A weak green fluorescence of the membrane and an intense staining of the nucleus
